# Source: ChEMBL document CHEMBL4616581, “Current scenario of artemisinin and its analogues for antimalarial activity” (Eur J Med Chem, 2019)
# Tests used:
# Assay type in all cases: functional, organism-based
# [1] = test system: Plasmodium falciparum; assay: Antimalarial activity against Plasmodium falciparum W2 after 24 hrs by in presence of [3H]hypoxanthine
# [2] = test system: Plasmodium falciparum; assay: Antimalarial activity against Plasmodium falciparum D6 after 24 hrs by in presence of [3H]hypoxanthine
# [3] = test system: Plasmodium falciparum; assay: Antimalarial activity against Plasmodium falciparum W2
# [4] = test system: Plasmodium falciparum; assay: Antimalarial activity against Plasmodium falciparum D6
Structure (SMILES),IC50 [1] [ng/mL],IC50 [2] [ng/mL],IC50 [3],IC50 [4] [ng/mL]
C[C@H]1[C@@H](OC2O[C@H](CO)[C@@H](O)[C@H](O)[C@H]2O)O[C@@H]2O[C@]3(C)CC[C@H]4[C@H](C)CC[C@@H]1[C@@]24OO3 (stereo partly specified),34.1,122,–,–
COC(=O)CC[C@@H](OC1O[C@@H]2O[C@]3(C)CC[C@H]4[C@H](C)CC[C@@H]([C@H]1C)[C@@]24OO3)c1ccc(F)cc1 (stereo partly specified),–,–,0.398 ng/mL,0.43
CC[C@H]1O[C@@H]2O[C@]3(C)CC[C@H]4[C@H](C)CC[C@@H]([C@H]1C)[C@@]24OO3,–,–,0.29 ng/mL,1.09
C[C@H]1[C@@H](CCO)O[C@@H]2O[C@]3(C)CC[C@H]4[C@H](C)CC[C@@H]1[C@@]24OO3,–,–,0.18 ng/mL,0.34
C[C@H]1[C@@H](OC2O[C@H](CO)[C@H](O)[C@H](O)[C@H]2O)O[C@@H]2O[C@]3(C)CC[C@H]4[C@H](C)CC[C@@H]1[C@@]24OO3 (stereo partly specified),35.6,13.1,–,–
COC(=O)C[C@@H](C)O[C@H]1O[C@@H]2O[C@]3(C)CC[C@H]4[C@H](C)CC[C@@H]([C@H]1C)[C@@]24OO3,0.071,0.44,–,–
C[C@@H]1CC[C@H]2[C@](C)(Br)[C@@H](Nc3ccccc3)O[C@@H]3O[C@]4(C)CC[C@@H]1[C@]32OO4,–,–,0.63 ng/mL,3.42
C[C@H]1[C@@H](O[C@@H]2O[C@H](CO)[C@@H](O[C@@H]3O[C@H](CO)[C@@H](O)[C@H](O)[C@H]3O)[C@H](O)[C@H]2O)O[C@@H]2O[C@]3(C)CC[C@H]4[C@H](C)CC[C@@H]1[C@@]24OO3,171,710,–,–
C[C@H]1[C@@H](OC[C@H](C)C(=O)O)O[C@@H]2O[C@]3(C)CC[C@H]4[C@H](C)CC[C@@H]1[C@@]24OO3,8.33,28.7,–,–
C[C@@H]1CC[C@H]2[C@](C)(Br)[C@@H](Nc3cccc(F)c3)O[C@@H]3O[C@]4(C)CC[C@@H]1[C@]32OO4,–,–,< 0.16 ng/mL,0.16
C[C@@H]1CC[C@H]2[C@](C)(Br)[C@@H](Nc3nccs3)O[C@@H]3O[C@]4(C)CC[C@@H]1[C@]32OO4,–,–,0.21 ng/mL,0.91
COC(=O)CC[C@H](OC1O[C@@H]2O[C@]3(C)CC[C@H]4[C@H](C)CC[C@@H]([C@H]1C)[C@@]24OO3)c1ccc(F)cc1 (stereo partly specified),–,–,0.488 ng/mL,0.616
C[C@H]1[C@@H](O[C@H](C)CC(=O)O)O[C@@H]2O[C@]3(C)CC[C@H]4[C@H](C)CC[C@@H]1[C@@]24OO3,4.42,36.5,–,–
C[C@@H]1CC[C@H]2[C@@H](C)C(CCCO)O[C@@H]3O[C@]4(C)CC[C@@H]1[C@]32OO4 (stereo partly specified),–,–,0.23 ng/mL,0.23
CCC[C@H]1O[C@@H]2O[C@]3(C)CC[C@H]4[C@H](C)CC[C@@H]([C@H]1C)[C@@]24OO3,–,–,0.16 ng/mL,0.41
C[C@H]1[C@@H](C(F)(F)F)O[C@@H]2O[C@]3(C)CC[C@H]4[C@H](C)CC[C@@H]1[C@@]24OO3,–,–,6.2 nM,–
COC(=O)CCC(OC1O[C@@H]2O[C@]3(C)CC[C@H]4[C@H](C)CC[C@@H]([C@H]1C)[C@@]24OO3)c1ccc(Cl)cc1 (stereo partly specified),–,–,0.656 ng/mL,0.391
C[C@@H]1CC[C@H]2[C@](C)(Br)[C@@H](Nc3ncccn3)O[C@@H]3O[C@]4(C)CC[C@@H]1[C@]32OO4,–,–,5.56 ng/mL,26
COC(=O)CC[C@@H](OC1O[C@@H]2O[C@]3(C)CC[C@H]4[C@H](C)CC[C@@H]([C@H]1C)[C@@]24OO3)c1ccc(Cl)cc1 (stereo partly specified),–,–,0.629 ng/mL,0.727
COC(=O)CC[C@H](OC1O[C@@H]2O[C@]3(C)CC[C@H]4[C@H](C)CC[C@@H]([C@H]1C)[C@@]24OO3)c1ccc(Cl)cc1 (stereo partly specified),–,–,0.794 ng/mL,0.903
C[C@@H]1CC[C@H]2[C@](C)(Br)[C@@H](Nc3ccccn3)O[C@@H]3O[C@]4(C)CC[C@@H]1[C@]32OO4,–,–,1.19 ng/mL,7.72
